Source: article doi:10.1101/2020.06.11.145995v1 (biorxiv, 2020)
Like-named read-outs stand apart in the source and are kept apart here. Values belong to the molecule of their own block, whether it stands above or below them.

How the values were obtained:
Assay in all cases: biochemical
[1] = target: ABL1(H396P)-nonphosphorylated (Homo sapiens, UniProt P00519, H396P)
ABL1-phosphorylated = ABL1-phosphorylated (Homo sapiens, UniProt P00519)
[2] = target: ABL1(Q252H)-nonphosphorylated (Homo sapiens, UniProt P00519, Q252H)
[3] = target: ABL1(Y253F)-phosphorylated (Homo sapiens, UniProt P00519, Y253F)
[4] = target: JAK2(JH1domain-catalytic) (Homo sapiens, UniProt O60674)
[5] = target: JAK1(JH1domain-catalytic) (Homo sapiens, UniProt P23458)
Sequence of JAK1(JH1domain-catalytic) (P23458 whole entry): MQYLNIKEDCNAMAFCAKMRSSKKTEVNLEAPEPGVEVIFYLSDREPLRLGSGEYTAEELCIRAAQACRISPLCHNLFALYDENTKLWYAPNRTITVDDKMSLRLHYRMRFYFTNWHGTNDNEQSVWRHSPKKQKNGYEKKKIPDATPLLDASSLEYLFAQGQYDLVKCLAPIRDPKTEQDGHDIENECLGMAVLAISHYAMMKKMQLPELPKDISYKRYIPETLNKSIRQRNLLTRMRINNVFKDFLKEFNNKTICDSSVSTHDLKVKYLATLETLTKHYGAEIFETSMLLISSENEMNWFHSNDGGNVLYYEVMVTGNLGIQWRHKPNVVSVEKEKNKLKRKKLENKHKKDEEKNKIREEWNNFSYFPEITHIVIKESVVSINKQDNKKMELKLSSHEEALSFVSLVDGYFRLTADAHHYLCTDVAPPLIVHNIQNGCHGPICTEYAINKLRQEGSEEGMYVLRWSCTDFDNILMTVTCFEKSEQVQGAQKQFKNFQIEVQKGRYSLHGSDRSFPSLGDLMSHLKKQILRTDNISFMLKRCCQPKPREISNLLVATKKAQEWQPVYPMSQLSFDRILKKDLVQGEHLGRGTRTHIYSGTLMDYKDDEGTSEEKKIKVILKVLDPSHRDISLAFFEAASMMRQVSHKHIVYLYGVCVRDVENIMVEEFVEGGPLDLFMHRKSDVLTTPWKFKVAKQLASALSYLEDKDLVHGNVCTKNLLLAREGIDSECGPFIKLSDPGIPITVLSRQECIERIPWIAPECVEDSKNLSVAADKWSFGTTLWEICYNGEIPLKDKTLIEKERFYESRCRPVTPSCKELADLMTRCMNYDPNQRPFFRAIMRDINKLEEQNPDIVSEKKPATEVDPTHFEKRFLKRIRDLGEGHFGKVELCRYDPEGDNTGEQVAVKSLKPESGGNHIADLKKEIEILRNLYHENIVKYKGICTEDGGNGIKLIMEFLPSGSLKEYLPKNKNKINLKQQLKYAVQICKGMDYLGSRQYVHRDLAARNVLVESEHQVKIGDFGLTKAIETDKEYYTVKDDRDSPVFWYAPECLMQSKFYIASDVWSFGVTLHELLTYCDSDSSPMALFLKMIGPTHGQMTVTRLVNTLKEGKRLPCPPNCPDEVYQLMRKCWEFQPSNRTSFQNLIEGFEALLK

NEK11 = NEK11 (Homo sapiens, UniProt Q8NG66)
NEK9 = NEK9 (Homo sapiens, UniProt Q8TD19)
OSR1 = OSR1 (Homo sapiens, UniProt O95747)
PCTK2 = PCTK2 (Homo sapiens, UniProt Q00537)
Sequence of PCTK2 (Q00537 whole entry): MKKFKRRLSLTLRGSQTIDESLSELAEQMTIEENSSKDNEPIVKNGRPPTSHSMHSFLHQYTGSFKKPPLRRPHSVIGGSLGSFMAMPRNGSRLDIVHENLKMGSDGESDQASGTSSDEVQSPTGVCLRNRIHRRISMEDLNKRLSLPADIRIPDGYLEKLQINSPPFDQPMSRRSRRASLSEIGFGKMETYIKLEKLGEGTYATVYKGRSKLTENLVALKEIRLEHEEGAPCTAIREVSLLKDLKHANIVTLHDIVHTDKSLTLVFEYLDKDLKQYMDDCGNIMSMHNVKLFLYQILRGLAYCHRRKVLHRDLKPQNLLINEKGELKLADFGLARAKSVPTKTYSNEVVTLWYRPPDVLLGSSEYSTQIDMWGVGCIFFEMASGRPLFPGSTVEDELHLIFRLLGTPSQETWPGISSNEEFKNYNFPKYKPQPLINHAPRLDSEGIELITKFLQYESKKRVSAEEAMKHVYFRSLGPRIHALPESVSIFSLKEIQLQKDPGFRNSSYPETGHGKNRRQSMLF

PDGFRA = PDGFRA (Homo sapiens, UniProt P16234)
PIK3C2G = PIK3C2G (Homo sapiens, UniProt O75747)
PRKCD = PRKCD (Homo sapiens, UniProt Q05655)
Sequence of PRKCD (Q05655 whole entry): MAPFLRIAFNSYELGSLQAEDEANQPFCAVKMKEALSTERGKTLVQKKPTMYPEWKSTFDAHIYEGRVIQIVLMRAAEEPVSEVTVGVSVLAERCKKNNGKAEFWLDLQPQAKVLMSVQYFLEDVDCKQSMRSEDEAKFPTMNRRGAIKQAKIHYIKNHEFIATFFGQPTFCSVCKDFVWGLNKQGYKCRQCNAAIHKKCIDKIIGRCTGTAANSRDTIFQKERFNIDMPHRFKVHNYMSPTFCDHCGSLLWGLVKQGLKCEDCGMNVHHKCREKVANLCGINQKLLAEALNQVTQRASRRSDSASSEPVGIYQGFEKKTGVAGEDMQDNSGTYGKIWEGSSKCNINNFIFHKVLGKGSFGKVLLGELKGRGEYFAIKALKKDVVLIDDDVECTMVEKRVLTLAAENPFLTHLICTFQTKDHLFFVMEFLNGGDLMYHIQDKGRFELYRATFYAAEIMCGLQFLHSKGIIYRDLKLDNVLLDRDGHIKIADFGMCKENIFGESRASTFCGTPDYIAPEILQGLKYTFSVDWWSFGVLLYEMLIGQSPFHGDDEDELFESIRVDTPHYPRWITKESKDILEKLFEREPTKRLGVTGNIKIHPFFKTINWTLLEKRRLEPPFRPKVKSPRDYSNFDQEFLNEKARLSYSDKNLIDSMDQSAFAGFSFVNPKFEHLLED

RET(V804L) = RET(V804L) (Homo sapiens, UniProt P07949, V804L)
RET(V804M) = RET(V804M) (Homo sapiens, UniProt P07949, V804M)
RIPK1 = RIPK1 (Homo sapiens, UniProt Q13546)
Sequence of RIPK1 (Q13546 whole entry): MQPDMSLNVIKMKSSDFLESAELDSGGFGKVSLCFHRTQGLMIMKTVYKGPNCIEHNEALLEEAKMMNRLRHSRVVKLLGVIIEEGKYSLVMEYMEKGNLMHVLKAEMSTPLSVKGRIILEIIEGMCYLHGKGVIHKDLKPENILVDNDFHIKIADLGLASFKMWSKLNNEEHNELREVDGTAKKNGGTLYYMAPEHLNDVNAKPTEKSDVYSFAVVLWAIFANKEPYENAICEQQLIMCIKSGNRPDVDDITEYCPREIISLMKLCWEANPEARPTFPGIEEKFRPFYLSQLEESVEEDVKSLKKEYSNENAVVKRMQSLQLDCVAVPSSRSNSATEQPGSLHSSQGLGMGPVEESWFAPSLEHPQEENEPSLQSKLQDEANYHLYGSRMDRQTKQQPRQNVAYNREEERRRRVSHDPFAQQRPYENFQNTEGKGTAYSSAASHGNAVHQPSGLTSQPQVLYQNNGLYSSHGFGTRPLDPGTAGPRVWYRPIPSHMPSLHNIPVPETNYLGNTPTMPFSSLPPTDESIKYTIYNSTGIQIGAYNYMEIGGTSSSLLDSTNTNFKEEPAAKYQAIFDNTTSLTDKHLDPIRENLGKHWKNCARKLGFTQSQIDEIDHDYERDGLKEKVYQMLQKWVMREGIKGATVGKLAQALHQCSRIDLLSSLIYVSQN

ROCK2 = ROCK2 (Homo sapiens, UniProt O75116)
SIK2 = SIK2 (Homo sapiens, UniProt Q9H0K1)
SLK = SLK (Homo sapiens, UniProt Q9H2G2)
SRMS = SRMS (Homo sapiens, UniProt Q9H3Y6)
SgK110 = SgK110 (Homo sapiens, UniProt P0C264)
Sequence of SgK110 (P0C264 whole entry): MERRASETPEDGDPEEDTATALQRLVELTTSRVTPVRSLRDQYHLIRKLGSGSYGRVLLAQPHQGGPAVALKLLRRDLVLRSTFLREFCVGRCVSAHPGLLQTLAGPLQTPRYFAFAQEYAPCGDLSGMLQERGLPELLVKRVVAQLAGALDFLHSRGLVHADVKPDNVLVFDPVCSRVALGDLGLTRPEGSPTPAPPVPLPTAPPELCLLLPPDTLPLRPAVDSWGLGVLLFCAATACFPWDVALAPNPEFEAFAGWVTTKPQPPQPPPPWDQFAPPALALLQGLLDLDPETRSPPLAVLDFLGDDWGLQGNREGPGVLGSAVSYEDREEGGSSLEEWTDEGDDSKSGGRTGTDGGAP

TIE1 = TIE1 (Homo sapiens, UniProt P35590)
TIE2 = TIE2 (Homo sapiens, UniProt Q02763)
Sequence of TIE2 (Q02763 whole entry): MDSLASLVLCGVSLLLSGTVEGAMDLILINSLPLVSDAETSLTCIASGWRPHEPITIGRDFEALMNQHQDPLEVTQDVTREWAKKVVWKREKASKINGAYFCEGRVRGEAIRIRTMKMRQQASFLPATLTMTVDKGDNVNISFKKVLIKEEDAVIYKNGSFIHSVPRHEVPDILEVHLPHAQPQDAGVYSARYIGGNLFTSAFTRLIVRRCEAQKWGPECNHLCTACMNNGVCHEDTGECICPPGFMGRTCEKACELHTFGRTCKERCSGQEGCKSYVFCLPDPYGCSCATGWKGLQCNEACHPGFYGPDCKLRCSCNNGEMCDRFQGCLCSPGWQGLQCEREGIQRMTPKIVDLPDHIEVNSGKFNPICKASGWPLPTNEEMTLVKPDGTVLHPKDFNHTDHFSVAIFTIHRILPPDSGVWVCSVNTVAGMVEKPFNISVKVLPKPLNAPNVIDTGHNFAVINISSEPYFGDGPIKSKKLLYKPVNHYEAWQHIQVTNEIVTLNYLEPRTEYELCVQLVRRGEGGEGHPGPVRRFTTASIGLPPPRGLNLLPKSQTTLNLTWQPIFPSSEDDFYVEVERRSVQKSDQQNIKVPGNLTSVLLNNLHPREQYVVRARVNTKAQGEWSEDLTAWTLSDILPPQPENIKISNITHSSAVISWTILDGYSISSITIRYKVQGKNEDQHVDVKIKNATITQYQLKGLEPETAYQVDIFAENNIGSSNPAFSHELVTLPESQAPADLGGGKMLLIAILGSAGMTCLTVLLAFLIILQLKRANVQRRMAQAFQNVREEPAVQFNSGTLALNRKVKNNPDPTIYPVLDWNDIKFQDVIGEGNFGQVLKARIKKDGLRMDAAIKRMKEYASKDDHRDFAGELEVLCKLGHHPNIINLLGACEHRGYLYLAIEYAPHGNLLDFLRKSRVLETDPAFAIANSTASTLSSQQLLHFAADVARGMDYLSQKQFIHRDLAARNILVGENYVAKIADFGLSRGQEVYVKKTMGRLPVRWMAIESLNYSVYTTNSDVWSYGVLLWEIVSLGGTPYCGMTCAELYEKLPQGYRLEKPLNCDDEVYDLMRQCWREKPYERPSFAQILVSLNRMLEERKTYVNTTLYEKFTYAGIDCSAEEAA

TNIK = TNIK (Homo sapiens, UniProt Q9UKE5)
TNK1 = TNK1 (Homo sapiens, UniProt Q13470)
TXK = TXK (Homo sapiens, UniProt P42681)
Sequence of TXK (P42681 whole entry): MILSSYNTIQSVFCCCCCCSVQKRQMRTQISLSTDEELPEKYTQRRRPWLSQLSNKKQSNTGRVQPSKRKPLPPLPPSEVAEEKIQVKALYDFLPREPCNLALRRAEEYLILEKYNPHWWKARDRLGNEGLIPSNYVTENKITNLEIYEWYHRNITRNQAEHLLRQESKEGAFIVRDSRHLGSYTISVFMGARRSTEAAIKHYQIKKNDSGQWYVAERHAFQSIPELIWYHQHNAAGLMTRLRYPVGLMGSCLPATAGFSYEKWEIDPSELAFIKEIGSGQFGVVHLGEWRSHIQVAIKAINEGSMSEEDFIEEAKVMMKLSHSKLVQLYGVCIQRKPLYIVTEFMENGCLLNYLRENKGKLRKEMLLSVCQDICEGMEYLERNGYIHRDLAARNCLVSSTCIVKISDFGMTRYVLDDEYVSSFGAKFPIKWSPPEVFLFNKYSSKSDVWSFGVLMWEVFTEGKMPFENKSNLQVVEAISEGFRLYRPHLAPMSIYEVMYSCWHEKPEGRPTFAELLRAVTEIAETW

VEGFR2 = VEGFR2 (Homo sapiens, UniProt P35968)
ZAK = ZAK (Homo sapiens, UniProt Q9NYL2)
p38-delta = p38-delta (Homo sapiens, UniProt O15264)
[6] = read-out: CPT-1-70-1 (1uM) % control
[7] = read-out: CPT-1-70-1 (1μM) % control
[8] = read-out: HYJ-2-002-1 (1uM) % control
[9] = read-out: HYJ-2-002-1 (1μM) % control

SMILES: CN1CCN(c2ccc(Nc3nc(Oc4ccc(NC(=O)CCl)cc4)c4cc[nH]c4n3)cc2)CC1 [CPT1-70-1]
remaining activity at 1 µM [1, 6]: 7.2%
remaining activity at 1 µM (ABL1-phosphorylated; [6]): 51%
remaining activity at 1 µM [2, 6]: 52%
remaining activity at 1 µM [3, 6]: 100%
remaining activity at 1 µM [4, 6]: 1.2%
remaining activity at 1 µM [5, 6]: 77%
remaining activity at 1 µM (NEK11; [7]): 95%
remaining activity at 1 µM (NEK9; [7]): 100%
remaining activity at 1 µM (OSR1; [7]): 96%
remaining activity at 1 µM (PCTK2; [7]): 100%
remaining activity at 1 µM (PDGFRA; [7]): 64%
remaining activity at 1 µM (PIK3C2G; [7]): 100%
remaining activity at 1 µM (PRKCD; [7]): 100%
remaining activity at 1 µM (RET(V804L); [7]): 11%
remaining activity at 1 µM (RET(V804M); [7]): 2.2%
remaining activity at 1 µM (RIPK1; [7]): 0.15%
remaining activity at 1 µM (ROCK2; [7]): 26%
remaining activity at 1 µM (SIK2; [7]): 57%
remaining activity at 1 µM (SLK; [7]): 77%
remaining activity at 1 µM (SRMS; [7]): 100%
remaining activity at 1 µM (SgK110; [7]): 100%
remaining activity at 1 µM (TIE1; [7]): 39%
remaining activity at 1 µM (TIE2; [7]): 100%
remaining activity at 1 µM (TNIK; [7]): 20%
remaining activity at 1 µM (TNK1; [7]): 0.95%
remaining activity at 1 µM (TXK; [7]): 4.6%
remaining activity at 1 µM (VEGFR2; [7]): 40%
remaining activity at 1 µM (ZAK; [7]): 71%
remaining activity at 1 µM (p38-delta; [7]): 100%

remaining activity at 1 µM [1, 8]: 0%
remaining activity at 1 µM (ABL1-phosphorylated; [8]): 0.1%
remaining activity at 1 µM [2, 8]: 0.05%
remaining activity at 1 µM [3, 8]: 0.7%
remaining activity at 1 µM [4, 8]: 57%
remaining activity at 1 µM [5, 8]: 41%
remaining activity at 1 µM (NEK11; [9]): 37%
remaining activity at 1 µM (OSR1; [9]): 93%
remaining activity at 1 µM (PCTK2; [9]): 100%
remaining activity at 1 µM (PDGFRA; [9]): 0.65%
remaining activity at 1 µM (PIK3C2G; [9]): 100%
remaining activity at 1 µM (PRKCD; [9]): 78%
remaining activity at 1 µM (RET(V804L); [9]): 1.4%
remaining activity at 1 µM (RET(V804M); [9]): 1%
remaining activity at 1 µM (RIPK1; [9]): 8.2%
remaining activity at 1 µM (ROCK2; [9]): 94%
remaining activity at 1 µM (SIK2; [9]): 34%
remaining activity at 1 µM (SLK; [9]): 9.8%
remaining activity at 1 µM (SRMS; [9]): 8.4%
remaining activity at 1 µM (SgK110; [9]): 96%
remaining activity at 1 µM (TIE1; [9]): 4.3%
remaining activity at 1 µM (TIE2; [9]): 0.15%
remaining activity at 1 µM (TNIK; [9]): 11%
remaining activity at 1 µM (TNK1; [9]): 15%
remaining activity at 1 µM (TXK; [9]): 2.1%
remaining activity at 1 µM (VEGFR2; [9]): 6.4%
remaining activity at 1 µM (ZAK; [9]): 3.9%
remaining activity at 1 µM (p38-delta; [9]): 66%
SMILES: CCN1CCN(Cc2ccc(NC(=O)c3ccc(C)c(CCc4cnc5[nH]ccc5c4OC)c3)cc2C(F)(F)F)CC1 [HYJ-2-002-1]
remaining activity at 1 µM (NEK9; [9]): 38%
